Reference: patent publication US7202339B2, “Crystals of MarR polypeptides, regulators of multiple antibiotic resistance” (Trustees of Tufts College, priority 2001, dated 2007)

Assays:
MarR [1] = target: T1, MarR (Escherichia coli, UniProt P27245); conditions: at millimolar concentrations; cited from earlier work
MarR [2] = target: T1, MarR; conditions: at millimolar concentrations; cited from earlier work; remark: listed apart in the source
[3] = target: MarR, regulator of multiple antibiotic resistance of Escherichia coli (wild type, expressed from pMarR-WT) (Escherichia coli); test: X-ray co-crystal structure of MarR dimer with salicylate

T1 sequence (P27245 whole entry): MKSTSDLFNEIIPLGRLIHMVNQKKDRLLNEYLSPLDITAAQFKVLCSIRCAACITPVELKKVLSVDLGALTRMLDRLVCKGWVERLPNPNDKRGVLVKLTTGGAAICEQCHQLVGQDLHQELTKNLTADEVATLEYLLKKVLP

Compound | inhibition of MarR activity in vitro (MarR [1]) | inhibition of MarR activity in whole cells (MarR [2]) | buried surface area (N-/C-terminal hydrophobic core) [3] [Å^2] | total buried surface area [3] [Å^2]
O=C([O-])c1ccccc1O.[Na+] [sodium salicylate] | inhibit MarR activity | inhibit MarR activity |  | 
MarR, regulator of multiple antibiotic resistance of Escherichia coli (wild type, expressed from pMarR-WT) |  |  | 3570 | 3700
